Data set [1] has as its system mouse LSECs (mLSECs). Briefly: Endocytosis competition of FITC-fNLPNTL uptake, fluorescence microscopy. It is filed as cell-based. Conditions: primary mLSECs, 4 h serum starved, 100 μg/ml competitor pre-incubated 30 min, then 20 μg/ml FITC-fNLPNTL 60 min at 37°C. The protocol: Mouse Heps (mHeps) and LSECs (mLSECs) were prepared by collagenase (Liberase) perfusion of mouse livers, followed by a low-speed differential centrifugation to separate Heps, and density sedimentation of the non-Heps enriched in the supernatant, on 25%– 45% Percoll gradients to collect LSECs and Kupffer cells (KCs), as described. Mouse LSECs were obtained after a panning step of 8 min at 37°C to remove KCs. The purity of mLSECs was between 90 and 95% as judged by fenestration assessed by scanning electron microscopy and positive immunostaining for the LSEC specific marker, stabilin 2. The remaining 5–10% of cells in these cultures represented KCs/monocytes and stellate cells. […]
(§1) Primary cultures of mouse and human Heps and LSECs were seeded on Permanox chamber slides coated with human fibronectin. […] After removal of unbound ligand by extensive washing with PBS, the cultures were fixed with 4% PFA and processed for fluorescence microscopy as described above.
(§2) After the removal of unbound ligands by extensive washing with PBS, the cultures were fixed with 4% PFA and processed for fluorescence microscopy.
(§3) Primary cultures of hLSECs (A) and mLSECs (B) were established on Permanox chamber slides coated with human fibronectin. […] After removal of unbound ligands by extensive washing with PBS, the cultures were fixed with 4% PFA and processed for fluorescence microscopy.

Data set [2] deals with human LSECs (hLSECs). Described as above. Conditions: primary hLSECs, 4 h serum starved, 100 μg/ml competitor pre-incubated 30 min, then 20 μg/ml FITC-fNLPNTL 60 min at 37°C. In kind it is cell-based.
Source text: Human hepatocytes (hHeps) and LSECs (hLSECs) were isolated from encapsulated liver resections based on a method described elsewhere. The procedure involves collagenase perfusion through cut blood vessels exposed on the surface of the liver resection. hHeps were isolated by low speed differential centrifugation, and the hLSECs purified by immunomagnetic isolation using mouse anti-human CD32 (Fitzgeralg Industries International INC, North Acton, MA, USA) and Dynabeads® Sheep anti-mouse IgG (Thermo Scientific, Oslo, Norway). The viability of hLSECs as judged by trypan blue exclusion was 95%, and the yield of hLSECs varied from 1 to 10 million depending on the size of the liver resection. […]
as §1, §2, §3

The nature of data set [3]: Anatomical distribution of i.v. injected 125I-labeled peptides. It is filed as in vivo. Conditions: C57BL/6 mice, 8 μg 125I-labeled peptide i.v., n = 2 per group. The protocol:
Unconjugated fNLPNTL and FITC- fNLPNTL were reconstituted at a concentration of 4 mg/ml in DMSO. […] of the solution, corresponding to 100 μg of each peptide was further diluted in PBS to a final volume of 200 μl and incubated with carrier-free Na^125I for 1h at RT, using Iodogen as described by the manufacturer. The labeled peptides were separated from unbound ^125I by elution with PBS through PD-10 columns. The specific radioactivities were 0.98 x 10^6 cpm/μg and 0.12 x 10^6 cpm/μg for ^125I-FITC-fNLPNTL and ^125I-fNLPNTL, respectively.
Prior to experiments, mice were weighed and pre-warmed in a temperature controlled chamber to stimulate dilation of the tail veins. […] The amount of radioactivity was measured in all organs and in the blood sample. The radioactivity per total volume of blood was calculated considering that the average amount of blood in a mouse is approximately 58.5 ml per kg of bodyweight (according to the National Centre for the Replacement Refinement & Reduction of Animals in Research). The amount of tracer recovered was the sum of radioactivity of individual organs, carcass and the radioactivity calculated in total blood volume.
Fig 2 Anatomical distribution of i.v. administered fNLPNTL. […] Blood, internal organs and carcass were harvested and analyzed for radioactivity. […]

Data set [4] relates to mouse Heps (mHeps). Briefly: Endocytosis competition of FITC-fNLPNTL uptake, fluorescence microscopy. In kind it is cell-based. Conditions: primary mHeps, 4 h serum starved, 100 μg/ml competitor pre-incubated 30 min, then 20 μg/ml FITC-fNLPNTL 60 min at 37°C.
Data set [5] concerns human hepatocytes (hHeps). The description is as above. In kind it is cell-based. Conditions: primary hHeps, 4 h serum starved, 100 μg/ml competitor pre-incubated 30 min, then 20 μg/ml FITC-fNLPNTL 60 min at 37°C.
Source text: Human hepatocytes (hHeps) and LSECs (hLSECs) were isolated from encapsulated liver resections based on a method described elsewhere. The procedure involves collagenase perfusion through cut blood vessels exposed on the surface of the liver resection. hHeps were isolated by low speed differential centrifugation, and the hLSECs purified by immunomagnetic isolation using mouse anti-human CD32 (Fitzgeralg Industries International INC, North Acton, MA, USA) and Dynabeads® Sheep anti-mouse IgG (Thermo Scientific, Oslo, Norway). The viability of hLSECs as judged by trypan blue exclusion was 95%, and the yield of hLSECs varied from 1 to 10 million depending on the size of the liver resection. The purity of the hLSECs isolation was between 85 and 95%, as judged by light microscopy. This variation in purity is due to donor variation. […]
as §1, §2

“FSA: Formaldehyde-treated bovine serum albumin, ligand specifically endocytosed by the LSECs scavenger receptors”: the “inhibition of uptake of FITC-fNLPNTL in mLSECs by competitor” value in data set [1] is on record as “inhibited”. Moreover, the “inhibition of uptake of FITC-fNLPNTL in hLSECs by competitor” value in data set [2] is “inhibited”.

Turning to “Fluorescein-isothiocyanate- N-Formyl-Nle-Leu-Phe-Nle-Tyr-Lys [FITC-fNLPNTL, fluorescein isothiocyanate derivative of fNLPNTL from Thermo Scientific]”, in data set [3] (30 min post injection), the “uptake in the liver compared to that of native fNLPNTL” value was “three-fold higher”. Also, in data set [3] (organs analysed 30 min post injection after systemic perfusion, radioactivity as % of total recovered), the “major organ of uptake” value is reported as “liver”.

As to “N-Formyl-Nle-Leu-Phe-Nle-Tyr-Lys [fNLPNTL, N-formyl peptide purchased from Phoenix Pharmaceuticals]”, the “inhibition of uptake of FITC-fNLPNTL in mHeps by competitor” value in data set [4] is reported as “blocked”. Further, the “inhibition of uptake of FITC-fNLPNTL in hHeps by competitor” value in data set [5] is listed as “blocked”. Further, the “inhibition of uptake of FITC-fNLPNTL in mLSECs by competitor” value in data set [1] was “less marked effect”. Further, the “inhibition of uptake of FITC-fNLPNTL in hLSECs by competitor” value in data set [2] was “less marked effect”.
